Patent US12435044B2, “Pyridazinone herbicides and pyridazinone intermediates used to prepare a herbicide” (FMC Corporation, priority 2018, dated 2025)

Tests used:
Assay type in all cases: in vivo
[1] = test system: waterhemp (common waterhemp, Amaranthus rudis); assay: Test C pre-/postemergence greenhouse test; conditions: scale 0 to 100
Description: (§1) Seeds of plant species selected from blackgrass (Alopecurus myosuroides), ryegrass, Italian (Lolium multiflorum), wheat, winter (winter wheat, Triticum aestivum), galium (catchweed bedstraw, Galium aparine), corn (Zea mays), crabgrass, large (Digitaria sanguinalis), foxtail, giant (Setaria faberii), johnsongrass (Sorghum halepense), lambsquarters (Chenopodium album), morningglory (Ipomoea coccinea), nutsedge, yellow (Cyperus esculentus), pigweed (Amaranthus retroflexus), ragweed (common ragweed, Ambrosia elatior), soybean (Glycine max), barnyardgrass (Echinochloa crus-galli), oilseed rape (Brassica napus), waterhemp (common waterhemp, Amaranthus rudis), pigweed, palmer (Amaranthus palmeri), kochia (Kochia scoparia), oat, wild (Avena fatua), surinam grass (Brachiaria decumbens), windgrass (Apera spica-venti), poinsettia, wild (Euphorbia heterophylla) and velvetleaf (Abutilon theophrasti) were planted into a silt loam soil and treated preemergence with test chemicals formulated in a non-phytotoxic solvent mixture which included a surfactant.
(§2) At the same time, plants selected from these crop and weed species and also chickweed (common chickweed, Stellaria media), buckwheat, wild (Polygonum convolvulus), mustard, wild (Sinapis arvensis), field poppy (Papaver rhoeas), field violet (Viola arvensis), nightshade (eastern black nightshade, Solanum ptycanthum), speedwell (bird's-eye speedwell, Veronica persica), horseweed (Conyza canadensis), cutleaf geranium (Geranium dissectum), and Canada thistle (Cirsium arvense) were planted in pots containing Redi-Earth® planting medium (Scotts Company, 14111 Scottslawn Road, Marysville, Ohio 43041) comprising spaghnum peat moss, vermiculite, wetting agent and starter nutrients and treated with postemergence applications of test chemicals formulated in the same manner. Plants ranged in height from 2 to 18 cm (1- to 4-leaf stage) for postemergence treatments. Treated plants and controls were maintained in a greenhouse for 13 to 21 d, after which time all species were compared to controls and visually evaluated. Plant response ratings, summarized in Table C-1 (postemergence) and C-2 (preemergence), are based on a scale of 0 to 100 where 0 is no effect and 100 is complete control. A dash (-) response means no test result.

[2] = test system: barnyardgrass (Echinochloa crus-galli); assay: Test C pre-/postemergence greenhouse test; conditions: scale 0 to 100
Description: as §1, §2

[3] = test system: wheat, winter (winter wheat, Triticum aestivum); assay: Test C pre-/postemergence greenhouse test; conditions: scale 0 to 100
Description: as §1, §2

kochia (Kochia scoparia) [4] = assay: Test C pre-/postemergence greenhouse test; conditions: scale 0 to 100
Description: as §1, §2

[5] = test system: johnsongrass (Sorghum halepense); assay: Test C pre-/postemergence greenhouse test; conditions: scale 0 to 100
Description: as §1, §2

[6] = test system: windgrass (Apera spica-venti); assay: Test C pre-/postemergence greenhouse test; conditions: scale 0 to 100
Description: as §1, §2

[7] = test system: galium (catchweed bedstraw, Galium aparine); assay: Test A postemergence greenhouse test
Description: (§3) Seeds of plant species selected from barnyardgrass (Echinochloa crus-galli), kochia (Kochia scoparia), ragweed (common ragweed, Ambrosia elatior), ryegrass, Italian (Lolium multiflorum), foxtail, giant (Setaria faberii), foxtail, green (Setaria viridis) and pigweed (Amaranthus retroflexus) were planted into a blend of loam soil and sand and treated preemergence with a directed soil spray using test chemicals formulated in a non-phytotoxic solvent mixture which included a surfactant.
(§4) At the same time, plants selected from these weed species and also wheat (Triticum aestivum), corn (Zea mays), blackgrass (Alopecurus myosuroides) and galium (catchweed bedstraw, Galium aparine) were planted in pots containing the same blend of loam soil and sand and treated with postemergence applications of test chemicals formulated in the same manner. Plants ranged in height from 2 to 10 cm and were in the one- to two-leaf stage for the postemergence treatment. Treated plants and untreated controls were maintained in a greenhouse for approximately 10 d, after which time all treated plants were compared to untreated controls and visually evaluated for injury. Plant response ratings, summarized in Table A, are based on a 0 to 100 scale where 0 is no effect and 100 is complete control. A dash (-) response means no test result.

corn (Zea mays) = assay: Test A postemergence greenhouse test
Description: as §3, §4

[8] = test system: blackgrass (Alopecurus myosuroides); assay: Test A postemergence greenhouse test
Description: as §3, §4

[9] = test system: wheat (Triticum aestivum); assay: Test A postemergence greenhouse test
Description: as §3, §4

[10] = test system: ryegrass, Italian (Lolium multiflorum); assay: Test A pre-/postemergence greenhouse test
Description: as §3, §4

[11] = test system: pigweed (Amaranthus retroflexus); assay: Test A pre-/postemergence greenhouse test
Description: as §3, §4

[12] = test system: barnyardgrass (Echinochloa crus-galli); assay: Test A pre-/postemergence greenhouse test
Description: as §3, §4

[13] = test system: ragweed (common ragweed, Ambrosia elatior); assay: Test A pre-/postemergence greenhouse test
Description: as §3, §4

kochia (Kochia scoparia) [14] = assay: Test A pre-/postemergence greenhouse test
Description: as §3, §4

Structure (SMILES): Cc1cc(Cl)c2ccccc2c1-c1c(O)c(Cl)nn(C)c1=O [Cpd. No. 65]
- Plant response rating, Waterhemp ([1]; Postemergence, 16 g ai/ha): 80
- Plant response rating, Waterhemp ([1]; Postemergence, 31 g ai/ha): 90
- Plant response rating, Waterhemp ([1]; Postemergence, 62 g ai/ha): 95
- Plant response rating, Waterhemp ([1]; Postemergence, 125 g ai/ha): 95
- Plant response rating, Waterhemp ([1]; Preemergence, 31 g ai/ha): 75
- Plant response rating, Waterhemp ([1]; Preemergence, 61 g ai/ha): 80
- Plant response rating, Waterhemp ([1]; Preemergence, 62 g ai/ha): 85
- Plant response rating, Waterhemp ([1]; Preemergence, 125 g ai/ha): 95
- Plant response rating, Barnyardgrass ([2]; Postemergence, 16 g ai/ha): 80
- Plant response rating, Barnyardgrass ([2]; Postemergence, 31 g ai/ha): 85
- Plant response rating, Barnyardgrass ([2]; Postemergence, 62 g ai/ha): 100
- Plant response rating, Barnyardgrass ([2]; Postemergence, 125 g ai/ha): 100
- Plant response rating, Barnyardgrass ([2]; Preemergence, 31 g ai/ha): 20
- Plant response rating, Barnyardgrass ([2]; Preemergence, 61 g ai/ha): 10
- Plant response rating, Barnyardgrass ([2]; Preemergence, 62 g ai/ha): 60
- Plant response rating, Barnyardgrass ([2]; Preemergence, 125 g ai/ha): 75
- Plant response rating, Wheat ([3]; Postemergence, 16 g ai/ha): 90
- Plant response rating, Wheat ([3]; Postemergence, 31 g ai/ha): 95
- Plant response rating, Wheat ([3]; Postemergence, 62 g ai/ha): 95
- Plant response rating, Wheat ([3]; Postemergence, 125 g ai/ha): 95
- Plant response rating, Wheat ([3]; Preemergence, 31 g ai/ha): 60
- Plant response rating, Wheat ([3]; Preemergence, 61 g ai/ha): 30
- Plant response rating, Wheat ([3]; Preemergence, 62 g ai/ha): 80
- Plant response rating, Wheat ([3]; Preemergence, 125 g ai/ha): 90
- Plant response rating, Kochia (kochia (Kochia scoparia) [4]; Postemergence, 16 g ai/ha): 40
- Plant response rating, Kochia (kochia (Kochia scoparia) [4]; Postemergence, 31 g ai/ha): 55
- Plant response rating, Kochia (kochia (Kochia scoparia) [4]; Postemergence, 62 g ai/ha): 65
- Plant response rating, Kochia (kochia (Kochia scoparia) [4]; Postemergence, 125 g ai/ha): 75
- Plant response rating, Kochia (kochia (Kochia scoparia) [4]; Preemergence, 31 g ai/ha): 70
- Plant response rating, Kochia (kochia (Kochia scoparia) [4]; Preemergence, 61 g ai/ha): 20
- Plant response rating, Kochia (kochia (Kochia scoparia) [4]; Preemergence, 62 g ai/ha): 85
- Plant response rating, Kochia (kochia (Kochia scoparia) [4]; Preemergence, 125 g ai/ha): 90
- Plant response rating, Johnsongrass ([5]; Postemergence, 16 g ai/ha): 20
- Plant response rating, Johnsongrass ([5]; Postemergence, 31 g ai/ha): 40
- Plant response rating, Johnsongrass ([5]; Postemergence, 62 g ai/ha): 75
- Plant response rating, Johnsongrass ([5]; Postemergence, 125 g ai/ha): 85
- Plant response rating, Johnsongrass ([5]; Preemergence, 31 g ai/ha): 5
- Plant response rating, Johnsongrass ([5]; Preemergence, 61 g ai/ha): 0
- Plant response rating, Johnsongrass ([5]; Preemergence, 62 g ai/ha): 5
- Plant response rating, Johnsongrass ([5]; Preemergence, 125 g ai/ha): 20
- Plant response rating, Windgrass ([6]; Postemergence, 16 g ai/ha): 90
- Plant response rating, Windgrass ([6]; Postemergence, 31 g ai/ha): 90
- Plant response rating, Windgrass ([6]; Postemergence, 62 g ai/ha): 95
- Plant response rating, Windgrass ([6]; Postemergence, 125 g ai/ha): 95
- Plant response rating, Windgrass ([6]; Preemergence, 31 g ai/ha): 80
- Plant response rating, Windgrass ([6]; Preemergence, 61 g ai/ha): 50
- Plant response rating, Windgrass ([6]; Preemergence, 62 g ai/ha): 95
- Plant response rating, Windgrass ([6]; Preemergence, 125 g ai/ha): 100
- Plant response rating (0 to 100 scale) ([7]; 31 g ai/ha): 100
- Plant response rating (0 to 100 scale) ([7]; 125 g ai/ha): 100
- Plant response rating (0 to 100 scale) (corn (Zea mays); 31 g ai/ha): 30
- Plant response rating (0 to 100 scale) (corn (Zea mays); 125 g ai/ha): 50
- Plant response rating (0 to 100 scale) ([8]; 31 g ai/ha): 90
- Plant response rating (0 to 100 scale) ([8]; 125 g ai/ha): 100
- Plant response rating (0 to 100 scale) ([9]; 31 g ai/ha): 80
- Plant response rating (0 to 100 scale) ([9]; 125 g ai/ha): 90
- Plant response rating (0 to 100 scale) ([10]; Postemergence, 31 g ai/ha): 100
- Plant response rating (0 to 100 scale) ([10]; Postemergence, 125 g ai/ha): 100
- Plant response rating (0 to 100 scale) ([10]; Preemergence, 31 g ai/ha): 100
- Plant response rating (0 to 100 scale) ([10]; Preemergence, 125 g ai/ha): 100
- Plant response rating (0 to 100 scale) ([11]; Postemergence, 31 g ai/ha): 100
- Plant response rating (0 to 100 scale) ([11]; Postemergence, 125 g ai/ha): 100
- Plant response rating (0 to 100 scale) ([11]; Preemergence, 31 g ai/ha): 100
- Plant response rating (0 to 100 scale) ([11]; Preemergence, 125 g ai/ha): 100
- Plant response rating (0 to 100 scale) ([12]; Postemergence, 31 g ai/ha): 100
- Plant response rating (0 to 100 scale) ([12]; Postemergence, 125 g ai/ha): 100
- Plant response rating (0 to 100 scale) ([12]; Preemergence, 31 g ai/ha): 100
- Plant response rating (0 to 100 scale) ([12]; Preemergence, 125 g ai/ha): 100
- Plant response rating (0 to 100 scale) ([13]; Postemergence, 31 g ai/ha): 100
- Plant response rating (0 to 100 scale) ([13]; Postemergence, 125 g ai/ha): 100
- Plant response rating (0 to 100 scale) ([13]; Preemergence, 31 g ai/ha): 100
- Plant response rating (0 to 100 scale) ([13]; Preemergence, 125 g ai/ha): 100
- Plant response rating (0 to 100 scale) (kochia (Kochia scoparia) [14]; Postemergence, 31 g ai/ha): 80
- Plant response rating (0 to 100 scale) (kochia (Kochia scoparia) [14]; Postemergence, 125 g ai/ha): 100
- Plant response rating (0 to 100 scale) (kochia (Kochia scoparia) [14]; Preemergence, 31 g ai/ha): 0
- Plant response rating (0 to 100 scale) (kochia (Kochia scoparia) [14]; Preemergence, 125 g ai/ha): 80
